Experimental data as given in patent US5593984A, “Cephalosporin derivatives” (Yuhan Corporation, priority 1992, dated 1997).
≈ marks a conversion by molar mass, not a printed value.

Experiments:
Format in all cases: cell-based
[1] = system: B. subtilis ATCC 6633; assay: MIC by agar dilution, B. subtilis ATCC 6633; settings: Bacillus subtilis, ATCC6633, 17 h; B. subtilis ATCC 6633; agar dilution, Mueller-Hinton agar; read-out: Minimal Inhibitory Concentration (MIC)
In short: (§1)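 MIC is the endpoint, obtained by agar dilution after 17±1 hours at 35°-37° C. on Mueller-Hinton agar containing doubling compound concentrations; strains inoculated at 10^6 CFU per ml.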

[2] = system: Staph. aureus ATCC 6538P; assay: MIC by agar dilution, Staph. aureus ATCC 6538P; settings: Staphylococcus aureus, ATCC6538P, 17 h; Staph. aureus ATCC 6538P; agar dilution, Mueller-Hinton agar; read-out: Minimal Inhibitory Concentration (MIC)
In short: as §1

[3] = system: Staph. aureus Smith; assay: MIC by agar dilution, Staph. aureus Smith; settings: Staphylococcus aureus, 17 h, Mueller-Hinton agar, read-out: Minimal Inhibitory Concentration (MIC)
In short: as §1

[4] = system: Staph. aureus C-57; assay: MIC by agar dilution, Staph. aureus C-57; settings: Staphylococcus aureus, C57, 17 h, Mueller-Hinton agar, read-out: Minimal Inhibitory Concentration (MIC)
In short: as §1

[5] = system: Staph. aureus C-5113; assay: MIC by agar dilution, Staph. aureus C-5113; settings: Staphylococcus aureus, C5113, 17 h, Mueller-Hinton agar, read-out: Minimal Inhibitory Concentration (MIC)
In short: as §1

[6] = system: Staph. aureus C-5216; assay: MIC by agar dilution, Staph. aureus C-5216; settings: Staphylococcus aureus, C5216, 17 h, Mueller-Hinton agar, read-out: Minimal Inhibitory Concentration (MIC)
In short: as §1

[7] = system: S. epidermidis ATCC 12228; assay: MIC by agar dilution, S. epidermidis ATCC 12228; settings: Staphylococcus epidermidis, ATCC12228, 17 h; S. epidermidis ATCC 12228; agar dilution, Mueller-Hinton agar; read-out: Minimal Inhibitory Concentration (MIC)
In short: as §1

[8] = system: Ent. aerogenes IFO 12979; assay: MIC by agar dilution, Ent. aerogenes IFO 12979; settings: Klebsiella aerogenes, IFO12979, 17 h, Mueller-Hinton agar, read-out: Minimal Inhibitory Concentration (MIC)
In short: as §1

[9] = system: Ent. cloacae IFO 13535; assay: MIC by agar dilution, Ent. cloacae IFO 13535; settings: Enterobacter cloacae, IFO13535, 17 h; Ent. cloacae IFO 13535; agar dilution, Mueller-Hinton agar; read-out: Minimal Inhibitory Concentration (MIC)
In short: as §1

[10] = system: E. coli NIHJ JC-2; assay: MIC by agar dilution, E. coli NIHJ JC-2; settings: Escherichia coli, NIHJJC2, 17 h; E. coli NIHJ JC-2; agar dilution, Mueller-Hinton agar; read-out: Minimal Inhibitory Concentration (MIC)
In short: as §1

[11] = system: E. coli No. 29; assay: MIC by agar dilution, E. coli No. 29; settings: Escherichia coli, 17 h; E. coli No. 29; agar dilution, Mueller-Hinton agar; read-out: Minimal Inhibitory Concentration (MIC)
In short: as §1

[12] = system: E. coli DY-1; assay: MIC by agar dilution, E. coli DY-1; settings: Escherichia coli, DY1, 17 h; E. coli DY-1; agar dilution, Mueller-Hinton agar; read-out: Minimal Inhibitory Concentration (MIC)
In short: as §1

[13] = system: K. pneumoniae NCTC 9632; assay: MIC by agar dilution, K. pneumoniae NCTC 9632; settings: Klebsiella pneumoniae, NCTC9632, 17 h; K. pneumoniae NCTC 9632; agar dilution, Mueller-Hinton agar; read-out: Minimal Inhibitory Concentration (MIC)
In short: as §1

[14] = system: M. morganii DY-1; assay: MIC by agar dilution, M. morganii DY-1; settings: Morganella morganii, DY1, 17 h; M. morganii DY-1; agar dilution, Mueller-Hinton agar; read-out: Minimal Inhibitory Concentration (MIC)
In short: as §1

[15] = system: Ps. aeruginosa ATCC 10145; assay: MIC by agar dilution, Ps. aeruginosa ATCC 10145; settings: Pseudomonas aeruginosa, ATCC10145, 17 h, Mueller-Hinton agar, read-out: Minimal Inhibitory Concentration (MIC)
In short: as §1

[16] = system: Ps. aeruginosa NCTC 10490; assay: MIC by agar dilution, Ps. aeruginosa NCTC 10490; settings: Pseudomonas aeruginosa, NCTC10490, 17 h, Mueller-Hinton agar, read-out: Minimal Inhibitory Concentration (MIC)
In short: as §1

[17] = system: Ps. aeruginosa DY-2; assay: MIC by agar dilution, Ps. aeruginosa DY-2; settings: Pseudomonas aeruginosa, DY2, 17 h; Ps. aeruginosa DY-2; agar dilution, Mueller-Hinton agar; read-out: Minimal Inhibitory Concentration (MIC)
In short: as §1

[18] = system: P. vulgaris NCTC 8313; assay: MIC by agar dilution, P. vulgaris NCTC 8313; settings: Proteus vulgaris, NCTC8313, 17 h; P. vulgaris NCTC 8313; agar dilution, Mueller-Hinton agar; read-out: Minimal Inhibitory Concentration (MIC)
In short: as §1

[19] = system: Prov. stuartii IFO 12930; assay: MIC by agar dilution, Prov. stuartii IFO 12930; settings: Providencia stuartii, IFO12930, 17 h, Mueller-Hinton agar, read-out: Minimal Inhibitory Concentration (MIC)
In short: as §1

[20] = system: Ser. marcescens IFO 12648; assay: MIC by agar dilution, Ser. marcescens IFO 12648; settings: Serratia marcescens, IFO12648, 17 h; Ser. marcescens IFO 12648; agar dilution, Mueller-Hinton agar; read-out: Minimal Inhibitory Concentration (MIC)
In short: as §1

Row | SMILES | MIC [1] [mg/L] | MIC [2] [mg/L] | MIC [3] [mg/L] | MIC [4] [mg/L] | MIC [5] [mg/L] | MIC [6] [mg/L] | MIC [7] [mg/L] | MIC [8] [mg/L] | MIC [9] [mg/L] | MIC [10] [mg/L] | MIC [11] [mg/L] | MIC [12] [mg/L] | MIC [13] [mg/L] | MIC [14] [mg/L] | MIC [15] [mg/L] | MIC [16] [mg/L] | MIC [17] [mg/L] | MIC [18] [mg/L] | MIC [19] [mg/L] | MIC [20] [mg/L]
1 | Nc1nc(/C(=N\O)C(=O)N[C@@H]2C(=O)N3C(C(=O)[O-])=C(C[n+]4ccn5cccc5c4)CS[C@H]23)cs1 [Ex. 7, 7-β-[(Z)-2-(2-aminothiazol-4-yl)-2-hydroxyiminoacetamido]-3-(pyrrolo[1,2-a]pyrazinium-2-yl)methyl-3-cephem-4-carboxylate] | 0.2 (≈ 0.4 µM) | 0.1 (≈ 0.2 µM) | 0.39 (≈ 0.781 µM) | 25 (≈ 50 µM) | 0.39 (≈ 0.781 µM) | 0.39 (≈ 0.781 µM) | 0.025 (≈ 0.05 µM) | 0.1 (≈ 0.2 µM) | 0.39 (≈ 0.781 µM) | 0.05 (≈ 0.1 µM) | 0.05 (≈ 0.1 µM) | 0.05 (≈ 0.1 µM) | 0.1 (≈ 0.2 µM) | 0.1 (≈ 0.2 µM) | 1.56 (≈ 3.12 µM) | 0.39 (≈ 0.781 µM) | 25 (≈ 50 µM) | 0.2 (≈ 0.4 µM) | 0.012 (≈ 0.024 µM) | 0.1 (≈ 0.2 µM)
2 | CON=C(C(=O)NC1C(=O)N2C(C(=O)[O-])=C(C[n+]3ccn4c(C(=O)O)ccc4c3)CSC12)c1csc(N)n1 (stereo not drawn) [Ex. 17, 7-β-[(Z)-2-(2-aminothiazol-4-yl)-2-methoxyiminoacetamido]-3-(6-carboxypyrrolo[1,2-a]pyrazinium-2-yl)methyl-3-cephem-4-carboxylate] | 0.1 (≈ 0.179 µM) | 0.39 (≈ 0.699 µM) | 0.78 (≈ 1.4 µM) | 25 (≈ 44.8 µM) | 1.56 (≈ 2.8 µM) | 1.56 (≈ 2.8 µM) | 0.1 (≈ 0.179 µM) | 0.025 (≈ 0.0448 µM) | 0.39 (≈ 0.699 µM) | 0.025 (≈ 0.0448 µM) | 0.012 (≈ 0.0215 µM) | 0.025 (≈ 0.0448 µM) | 0.025 (≈ 0.0448 µM) | 0.025 (≈ 0.0448 µM) | 1.56 (≈ 2.8 µM) | 0.2 (≈ 0.359 µM) | 3.13 (≈ 5.61 µM) | 0.012 (≈ 0.0215 µM) | ≤ 0.006 | 0.05 (≈ 0.0897 µM)
3 | CO/N=C(\C(=O)N[C@@H]1C(=O)N2C(C(=O)[O-])=C(C[n+]3ccn4c(C(C)O)ccc4c3)CS[C@H]12)c1nsc(N)n1 (stereo partly drawn) [Ex. 51, 7-β-[(Z)-2-(5-amino-1,2,4-thiadiazol-3-yl)-2-methoxyiminoacetamido]-3-[6-(1-hydroxyethyl)pyrrolo[1,2-a]-pyrazinium-2-yl]methyl-3cephem-4-carboxylate] | 0.2 (≈ 0.358 µM) | 0.78 (≈ 1.4 µM) | 1.56 (≈ 2.79 µM) | 50 (≈ 89.5 µM) | 1.56 (≈ 2.79 µM) | 1.56 (≈ 2.79 µM) | 0.1 (≈ 0.179 µM) | 0.025 (≈ 0.0448 µM) | 0.1 (≈ 0.179 µM) | 0.025 (≈ 0.0448 µM) | 0.025 (≈ 0.0448 µM) | 0.025 (≈ 0.0448 µM) | 0.05 (≈ 0.0895 µM) | 0.1 (≈ 0.179 µM) | 1.56 (≈ 2.79 µM) | 0.2 (≈ 0.358 µM) | 3.13 (≈ 5.6 µM) | 0.05 (≈ 0.0895 µM) | 0.012 (≈ 0.0215 µM) | 0.05 (≈ 0.0895 µM)
4 | CO/N=C(\C(=O)N[C@@H]1C(=O)N2C(C(=O)[O-])=C(C[n+]3ccn4c(SCCO)ccc4c3)CS[C@H]12)c1nsc(N)n1 [Ex. 53, 7-β-[(Z)-2-(5-amino-1,2,4-thiadiazol-3-yl)-2-methoxyiminoacetamido]-3-[6-(2-hydroxyethylthio)pyrrolo[1,2-a]-pyrazinium-2-yl]methyl-3-cephem-4-carboxylate] | 0.2 (≈ 0.339 µM) | 0.78 (≈ 1.32 µM) | 3.13 (≈ 5.3 µM) | 25 (≈ 42.3 µM) | 3.13 (≈ 5.3 µM) | 3.13 (≈ 5.3 µM) | 3.39 (≈ 5.74 µM) | 0.025 (≈ 0.0423 µM) | 0.1 (≈ 0.169 µM) | 0.025 (≈ 0.0423 µM) | 0.05 (≈ 0.0846 µM) | 0.025 (≈ 0.0423 µM) | 0.025 (≈ 0.0423 µM) | 0.05 (≈ 0.0846 µM) | 0.78 (≈ 1.32 µM) | 0.78 (≈ 1.32 µM) | 6.25 (≈ 10.6 µM) | 0.1 (≈ 0.169 µM) | 0.025 (≈ 0.0423 µM) | 0.05 (≈ 0.0846 µM)
5 | CO/N=C(\C(=O)N[C@@H]1C(=O)N2C(C(=O)[O-])=C(C[n+]3ccn4c(C(C)=O)cc(Cl)c4c3)CS[C@H]12)c1csc(N)n1 [Ex. 34, 7-β-[(Z)-2-(2-aminothiazol-4-yl)2-methoxyiminoacetamido]-3-(6-acetyl-8-chloropyrrolo[1,2-a]pyrazinium-2-yl)methyl-3-cephem-4-carboxylate] | 0.39 (≈ 0.661 µM) | 0.78 (≈ 1.32 µM) | 1.56 (≈ 2.64 µM) | 25 (≈ 42.4 µM) | 0.78 (≈ 1.32 µM) | 0.78 (≈ 1.32 µM) | 0.1 (≈ 0.169 µM) | 0.025 (≈ 0.0424 µM) | 0.1 (≈ 0.169 µM) | 0.05 (≈ 0.0847 µM) | 0.025 (≈ 0.0424 µM) | 0.025 (≈ 0.0424 µM) | 0.025 (≈ 0.0424 µM) | 0.05 (≈ 0.0847 µM) | 6.25 (≈ 10.6 µM) | 3.13 (≈ 5.3 µM) | 25 (≈ 42.4 µM) | 0.012 (≈ 0.0203 µM) | 0.025 (≈ 0.0424 µM) | 0.05 (≈ 0.0847 µM)
6 | CO/N=C(\C(=O)N[C@@H]1C(=O)N2C(C(=O)[O-])=C(C[n+]3ccn4cccc4c3C)CS[C@H]12)c1csc(N)n1 [Ex. 40, 7-β-[(Z)-2-(2-aminothiazol-4-yl)-2-methoxylminoacetamido]-3-(1-methylpyrrolo[1,2-a]pyrazinium-2-yl)methyl-3-cephem-4-carboxylate] | 0.1 (≈ 0.19 µM) | 0.05 (≈ 0.0948 µM) | 0.2 (≈ 0.379 µM) | 12.5 (≈ 23.7 µM) | 0.78 (≈ 1.48 µM) | 0.78 (≈ 1.48 µM) | 0.05 (≈ 0.0948 µM) | 0.012 (≈ 0.0227 µM) | 0.025 (≈ 0.0474 µM) | 0.012 (≈ 0.0227 µM) | ≤ 0.006 | ≤ 0.006 | ≤ 0.006 | 0.012 (≈ 0.0227 µM) | 0.78 (≈ 1.48 µM) | 0.39 (≈ 0.739 µM) | 3.13 (≈ 5.93 µM) | 0.012 (≈ 0.0227 µM) | ≤ 0.006 | 0.012 (≈ 0.0227 µM)
